Measurements reported in ChEMBL document CHEMBL1150413, “A series of potent and selective, triazolylphenyl-based histone deacetylases inhibitors with activity against pancreatic cancer cells and Plasmodium falciparum” (J Med Chem, 2008).

What was measured:
[1] = Cytotoxicity against human Hup T3 cells after 72 hrs by MTT assay; type: functional, cell-based; conditions: HuP-T3, 72 h
[2] = biological target: T1, Polyamine deacetylase HDAC10 (Homo sapiens, UniProt Q969S8)
T1 sequence (Q969S8 whole entry): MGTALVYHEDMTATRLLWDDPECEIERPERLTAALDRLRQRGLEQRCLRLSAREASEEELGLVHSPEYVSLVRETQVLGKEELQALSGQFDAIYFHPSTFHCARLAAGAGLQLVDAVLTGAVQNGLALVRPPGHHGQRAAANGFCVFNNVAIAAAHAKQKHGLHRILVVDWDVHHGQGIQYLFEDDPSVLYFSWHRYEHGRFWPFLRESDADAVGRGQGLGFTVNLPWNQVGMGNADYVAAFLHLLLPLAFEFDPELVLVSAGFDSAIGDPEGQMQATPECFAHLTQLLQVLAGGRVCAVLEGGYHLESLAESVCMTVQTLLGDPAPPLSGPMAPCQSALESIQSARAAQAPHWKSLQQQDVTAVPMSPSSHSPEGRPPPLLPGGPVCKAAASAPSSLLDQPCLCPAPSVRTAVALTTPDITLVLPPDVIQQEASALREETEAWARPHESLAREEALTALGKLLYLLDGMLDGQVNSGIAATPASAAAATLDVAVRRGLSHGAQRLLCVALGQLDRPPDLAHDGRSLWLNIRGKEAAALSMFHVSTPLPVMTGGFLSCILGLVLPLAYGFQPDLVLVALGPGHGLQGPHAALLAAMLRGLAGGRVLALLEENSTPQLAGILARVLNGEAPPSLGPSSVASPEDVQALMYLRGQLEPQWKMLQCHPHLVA

Plasmodium falciparum [3] = test: Antimalarial activity against Plasmodium falciparum D6 by hypoxanthine uptake; type: functional, organism-based
BXPC-3 = test: Cytotoxicity against human BxPC3 cells after 72 hrs by MTT assay; type: functional, cell-based; conditions: BXPC-3, 72 h
Plasmodium falciparum [4] = test: microbe, parasite or virus in culture; conditions: TM91C235
Description: Antimalarial activity against Plasmodium falciparum TM91C235 by hypoxanthine uptake

Histone deacetylase 1 = Histone deacetylase 1 (Homo sapiens, UniProt Q13547)
Histone deacetylase 1, sequence (Q13547 whole entry): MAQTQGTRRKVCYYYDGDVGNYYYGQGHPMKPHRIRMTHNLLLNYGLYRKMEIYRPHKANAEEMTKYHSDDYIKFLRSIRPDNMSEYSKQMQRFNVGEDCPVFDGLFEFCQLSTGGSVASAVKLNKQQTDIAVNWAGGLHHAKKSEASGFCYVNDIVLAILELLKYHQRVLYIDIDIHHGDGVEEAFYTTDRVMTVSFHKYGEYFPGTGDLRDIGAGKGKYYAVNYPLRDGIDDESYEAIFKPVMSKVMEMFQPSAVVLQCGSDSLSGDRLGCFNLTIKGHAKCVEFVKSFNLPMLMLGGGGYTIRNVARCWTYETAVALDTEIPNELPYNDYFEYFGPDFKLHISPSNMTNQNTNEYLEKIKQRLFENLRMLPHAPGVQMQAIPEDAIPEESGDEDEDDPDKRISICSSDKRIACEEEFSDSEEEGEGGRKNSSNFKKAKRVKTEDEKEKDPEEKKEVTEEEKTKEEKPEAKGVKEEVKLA

[5] = Cytotoxicity against human SU 86.86 cells after 72 hrs by MTT assay; type: functional, cell-based; conditions: SU.86.86, 72 h
[6] = Selectivity for HDAC10 over HDAC1
[7] = biological target: T2, Protein deacetylase HDAC6 (Homo sapiens, UniProt Q9UBN7)
T2 sequence (Q9UBN7 whole entry): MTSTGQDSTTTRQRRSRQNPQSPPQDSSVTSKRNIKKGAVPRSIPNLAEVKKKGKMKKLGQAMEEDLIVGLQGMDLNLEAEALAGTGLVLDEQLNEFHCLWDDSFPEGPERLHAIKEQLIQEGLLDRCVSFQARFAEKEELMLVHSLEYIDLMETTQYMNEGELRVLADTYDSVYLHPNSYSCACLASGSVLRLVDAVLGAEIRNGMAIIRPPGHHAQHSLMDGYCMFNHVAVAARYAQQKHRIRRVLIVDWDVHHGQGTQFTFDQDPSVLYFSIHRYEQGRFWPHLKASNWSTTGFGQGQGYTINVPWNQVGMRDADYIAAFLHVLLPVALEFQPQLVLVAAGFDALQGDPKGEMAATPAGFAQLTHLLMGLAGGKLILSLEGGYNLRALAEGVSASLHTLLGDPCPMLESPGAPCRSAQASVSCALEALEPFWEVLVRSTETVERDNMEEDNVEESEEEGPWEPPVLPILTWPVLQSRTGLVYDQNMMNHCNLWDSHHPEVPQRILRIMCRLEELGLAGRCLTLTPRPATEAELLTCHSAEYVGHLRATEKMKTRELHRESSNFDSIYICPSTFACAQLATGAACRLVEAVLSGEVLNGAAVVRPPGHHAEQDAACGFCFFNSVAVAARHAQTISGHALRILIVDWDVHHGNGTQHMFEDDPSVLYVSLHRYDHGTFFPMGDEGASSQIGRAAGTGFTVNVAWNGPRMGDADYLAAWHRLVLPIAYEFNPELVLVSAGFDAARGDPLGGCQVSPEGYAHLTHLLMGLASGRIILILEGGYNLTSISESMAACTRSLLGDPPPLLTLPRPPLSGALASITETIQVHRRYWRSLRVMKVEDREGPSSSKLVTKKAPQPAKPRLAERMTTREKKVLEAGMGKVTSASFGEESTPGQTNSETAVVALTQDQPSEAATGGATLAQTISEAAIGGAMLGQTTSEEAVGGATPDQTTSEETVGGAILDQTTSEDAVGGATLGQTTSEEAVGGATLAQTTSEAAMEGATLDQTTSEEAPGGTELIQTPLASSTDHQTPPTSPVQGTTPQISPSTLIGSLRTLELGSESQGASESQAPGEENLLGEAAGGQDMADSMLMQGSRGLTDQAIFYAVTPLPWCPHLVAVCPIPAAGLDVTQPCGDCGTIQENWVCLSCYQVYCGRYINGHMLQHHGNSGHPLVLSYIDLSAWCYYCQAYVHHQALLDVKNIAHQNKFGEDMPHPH

Histone deacetylase 2 = Histone deacetylase 2 (Homo sapiens, UniProt Q92769)
Histone deacetylase 2, sequence (Q92769 whole entry): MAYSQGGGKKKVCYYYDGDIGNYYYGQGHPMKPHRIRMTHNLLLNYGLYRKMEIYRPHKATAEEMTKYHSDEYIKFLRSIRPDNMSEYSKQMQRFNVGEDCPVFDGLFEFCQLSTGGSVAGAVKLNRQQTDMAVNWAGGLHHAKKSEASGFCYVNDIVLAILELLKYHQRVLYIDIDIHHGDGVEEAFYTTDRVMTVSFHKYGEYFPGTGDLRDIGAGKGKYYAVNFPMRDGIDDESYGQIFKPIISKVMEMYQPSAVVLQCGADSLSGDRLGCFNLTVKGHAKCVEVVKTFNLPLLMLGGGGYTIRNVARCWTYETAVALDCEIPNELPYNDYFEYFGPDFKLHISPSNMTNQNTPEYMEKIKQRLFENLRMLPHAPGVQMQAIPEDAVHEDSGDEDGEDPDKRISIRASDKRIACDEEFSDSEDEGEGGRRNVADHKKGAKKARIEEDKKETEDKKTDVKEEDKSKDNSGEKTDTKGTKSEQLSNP

Histone deacetylase 8 = biological target: T3, Histone deacetylase 8 (Homo sapiens, UniProt Q9BY41)
T3 sequence (Q9BY41 whole entry): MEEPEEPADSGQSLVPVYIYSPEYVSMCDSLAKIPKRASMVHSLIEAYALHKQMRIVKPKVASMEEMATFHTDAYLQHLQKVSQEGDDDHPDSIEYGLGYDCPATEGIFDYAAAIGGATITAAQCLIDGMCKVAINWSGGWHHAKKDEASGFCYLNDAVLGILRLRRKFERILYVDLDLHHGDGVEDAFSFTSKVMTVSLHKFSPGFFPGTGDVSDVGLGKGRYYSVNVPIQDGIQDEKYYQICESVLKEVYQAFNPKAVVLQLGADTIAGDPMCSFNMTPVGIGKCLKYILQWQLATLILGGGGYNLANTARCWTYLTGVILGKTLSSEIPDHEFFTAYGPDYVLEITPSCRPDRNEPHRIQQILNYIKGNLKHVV

Plasmodium falciparum [8] = test: Antimalarial activity against Plasmodium falciparum TM90C2A by hypoxanthine uptake; type: functional, organism-based
Plasmodium falciparum [9] = test: Antimalarial activity against Plasmodium falciparum W2 by hypoxanthine uptake; type: functional, organism-based
[10] = Cytotoxicity against human Panc 04.03 cells after 72 hrs by MTT assay; type: functional, cell-based; conditions: Panc 04.03, 72 h
Histone deacetylase 3 = Histone deacetylase 3 (Homo sapiens, UniProt O15379)
Histone deacetylase 3, sequence (O15379 whole entry): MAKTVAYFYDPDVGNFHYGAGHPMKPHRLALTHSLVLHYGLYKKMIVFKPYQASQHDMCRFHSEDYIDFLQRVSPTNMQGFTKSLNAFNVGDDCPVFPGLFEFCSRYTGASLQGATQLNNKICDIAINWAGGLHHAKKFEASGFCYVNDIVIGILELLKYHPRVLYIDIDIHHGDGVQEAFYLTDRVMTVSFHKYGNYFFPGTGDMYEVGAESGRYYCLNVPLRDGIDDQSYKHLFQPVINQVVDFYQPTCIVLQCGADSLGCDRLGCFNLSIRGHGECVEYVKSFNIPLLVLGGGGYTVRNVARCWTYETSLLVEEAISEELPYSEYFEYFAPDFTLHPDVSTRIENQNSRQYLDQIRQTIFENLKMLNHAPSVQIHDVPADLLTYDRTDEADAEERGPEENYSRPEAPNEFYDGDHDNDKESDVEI

MIA PaCa-2 = test: Cytotoxicity against human Mia Paca2 cells after 72 hrs by MTT assay; type: functional, cell-based; conditions: MIA PaCa-2, 72 h

Compound	IC50 [1]	IC50 [2]	IC50 (Plasmodium falciparum [3])	IC50 (BXPC-3)	IC50 (Plasmodium falciparum [4])	IC50 (Histone deacetylase 1)	IC50 [5]	Ratio IC50 [6]	IC50 [7]	IC50 (Histone deacetylase 2)	IC50 (Histone deacetylase 8)	IC50 (Plasmodium falciparum [8])	IC50 (Plasmodium falciparum [9])	IC50 [10]	IC50 (Histone deacetylase 3)	IC50 (MIA PaCa-2)
O=C(CCCCCCC(=O)Nc1cccc(-c2cnnn2Cc2ccc(F)cc2)c1)NO	5 µM	0.0176 µM	0.3 µM	11 µM	0.46 µM	0.0259 µM	8 µM	1.5	0.0038 µM	0.124 µM	0.529 µM	0.21 µM	0.59 µM	9 µM	0.0058 µM	2 µM
O=C(CCCCCCC(=O)Nc1ccc(-c2cn(Cc3ccc(F)cc3)nn2)cc1)NO	4 µM	0.112 µM	–	22 µM	–	0.0978 µM	11 µM	0.9	0.0019 µM	0.294 µM	0.797 µM	–	–	3 µM	0.0137 µM	< 0.5 µM
O=C(CCCCCCC(=O)Nc1cccc(-c2cn(CC(O)c3cccc(Br)c3)nn2)c1)NO (configuration not stated)	11 µM	0.013 µM	0.11 µM	11 µM	0.26 µM	0.0149 µM	12 µM	1.1	0.0019 µM	0.0644 µM	0.44 µM	0.11 µM	0.56 µM	14 µM	0.0027 µM	0.8 µM
O=C(CCCCCCC(=O)Nc1ccc(-c2cnnn2-c2ccccc2)cc1)NO	10 µM	0.0557 µM	0.35 µM	13 µM	0.47 µM	0.0705 µM	11 µM	1.3	0.0035 µM	0.146 µM	0.518 µM	0.17 µM	0.62 µM	8 µM	0.012 µM	8 µM
O=C(CCCCCCC(=O)Nc1ccc(-c2cn(Cc3ccccc3)nn2)cc1)NO	5 µM	0.188 µM	0.21 µM	9 µM	0.3 µM	0.113 µM	10 µM	0.6	0.0048 µM	0.679 µM	3.97 µM	0.16 µM	0.53 µM	2 µM	–	< 1 µM
O[C@@H](c1cc(C(F)(F)F)nc2c(C(F)(F)F)cccc12)[C@H]1CCCCN1 [MEFLOQUINE]	–	–	0.011 µM	–	–	–	–	–	–	–	–	–	–	–	–	–
O=C(CCCCCCC(=O)Nc1ccc(-c2cnnn2Cc2ccccc2)cc1)NO	5 µM	0.0701 µM	0.4 µM	11 µM	0.52 µM	0.0683 µM	9 µM	1	0.0031 µM	0.124 µM	0.79 µM	0.3 µM	> 1.2 µM	2 µM	0.0097 µM	2 µM
